# Results as given in patent US20250277272A1, “CANCER TREATMENTS AND METHODS OF SELECTING SAME” (The General Hospital Corporation, priority 2016, published 2025).
# What was measured:
# [1] = system: WM902BR cells; test: MTS assay with the ERK inhibitor, WM902 (Stag2 WT) and WM902BR (Stag2 mutant); type: cell-based; conditions: 3 days, two independent experiments
# Method: Both WM902 (Stag2 WT) and WM902BR (Stag2 mutant) were treated with various concentrations of ERK inhibitor SCH772984 for 3 days, before MTS assays were performed. Data were from two independent experiments: Experiment A (FIG. 11A) and Experiment B (FIG. 11B).
# (§1) Cell culture: All melanoma cell lines used in this study contain BRAF^Val600Glu mutations, except as otherwise indicated. A375 and SKMEL28 cells were purchased from the American Type Culture Collection (ATCC). LOX-IVMI cells were obtained from the Division of Cancer Treatment and Diagnosis. National Cancer Institute. (NCI-DCTD) repository. WM902, WM902-BR, WM983, WM983-BR and MEL1617 cell lines were obtained from Dr. Meenhard Herlyn (Wistar Institute). Immortalized Braf-null mouse embryonic fibroblasts (MEFs) were a gift from Dr. Catrin Pritchard (University of Leicester)^38. 501MEL and SKMEL103 cells, harboring NRAS mutations, were gifts from Dr. Lynda Chin (MD Anderson Cancer Center) and Dr. Jonathon Zippin (Weill Cornell Medical College), respectively. These cell lines were not authenticated by the inventors. WM902, WM983, M14, MEL1617, SKMEL28, A375, LOX-IVMI, 501MEL and SKMEL103 cells were cultured in RPMI containing 10% FBS (FBS) and penicillin-streptomycin-glutamine (PSG). HEK293 and MEF cells were maintained in Dulbecco's modified Eagle's medium (DMEM) containing 10% FBS and PSG. […]
# [2] = system: M14 or SKMEL28 melanoma cells; test: MTS assay with the ERK inhibitor, cells with inducible Stag2 knockdown; type: cell-based; conditions: doxycycline-induced shStag2 #60; 3 days
# Method: M14 (FIG. 12A) or SKMEL28 (FIG. 12B) melanoma cells expressing pTRIPZ-shStag2 #60 were cultured in the presence or absence of doxycycline (Doxy) for 5 days to induce the expression of Stag2 shRNAs and treated with various concentrations of ERK inhibitor SCH772984 for 3 days, before MTS assays were performed.
# as §1, with “(PSG).” for “(PSG). HEK293 and MEF cells were maintained in Dulbecco's modified Eagle's medium (DMEM) containing 10% FBS and PSG.”
# [3] = system: BRAF-mutant melanoma cells; test: BRAFi sensitivity after STAG3 knockdown (cell viability and ERK inhibition); type: cell-based; conditions: knockdown of STAG3
# [4] = system: SKMEL28, A375 and M14 cells; test: Sensitivity of cells with inducible STAG2 shRNA to BRAFi (viability, Western blot); type: cell-based; conditions: inducible expression of an independent shRNA targeting STAG2
# Method: (§2) FIGS. 2A-2H. Knock-down of STAG2 or STAG3 decreases BRAFi sensitivity in BRAF-mutant melanoma cells. FIG. 2A, Viability of A375 cells expressing cither a scrambled control shRNA or a STAG2-specific shRNA (shSTAG2 #23), after treatment with varying concentrations of dabrafenib (Dab) for 3 d. Experiment was performed three times. Data are mean±s.e.m. shSTAG2 #23 sequence: […] TTTG; SEQ ID NO. 1) scramble control shRNA sequence: ([…]: SEQ ID NO. 2) FIG. 2B, Representative Western blot analysis of A375 cells that were treated with dabrafenib for 2 hr. Experiment was performed three times. FIG. 2C, Viability of SKMEL28 cells expressing an inducible STAG2-specific shRNA (shStag2 #60; […]: SEQ ID NO. 3) and cultured in the presence (+Dox) or absence (−Dox) of doxycycline after treatment with varying concentrations of vemurafenib (VEM) for 3 d. Experiment was performed three times. FIG. 2D, Representative Western blot analysis of SKMEL30 cells that were treated with vemurafenib for 2 hr. FIG. 2E, Viability of A375 cells expressing either a scrambled control shRNA or a STAG3-specific shRNA (shSTAG3 #96), after treatment with varying concentrations of dabrafenib for 3 days. Experiment was performed 3 times. Data are mean±s.e.m. […]
# [5] = system: A375 cells; test: MTS cell viability assay, A375 cells with STAG2 knockdown; type: cell-based; conditions: A375 cells expressing STAG2-specific shRNA vs scrambled control shRNA; 3 d
# Method: FIGS. 2A-2H. […] FIG. 2A, Viability of A375 cells expressing cither a scrambled control shRNA or a STAG2-specific shRNA (shSTAG2 #23), after treatment with varying concentrations of dabrafenib (Dab) for 3 d. Experiment was performed three times. Data are mean±s.e.m. shSTAG2 #23 sequence: […] TTTG; SEQ ID NO. […] 2) FIG. 2B, Representative Western blot analysis of A375 cells that were treated with dabrafenib for 2 hr. Experiment was performed three times. […] Experiment was performed three times. FIG. 2D, Representative Western blot analysis of SKMEL30 cells that were treated with vemurafenib for 2 hr. […] Experiment was performed 3 times. Data are mean±s.e.m. […] Experiment was performed three times. […] Experiment was performed three times. […] Experiment was performed three times.
# Experiment was performed 3 times. Data are mean±s.e.m. […] Experiment was performed three times. […] Experiment was performed three times. […] Experiment was performed 3 times. Data are mean±s.e.m. […] Experiment was performed three times. […] Experiment was performed three times. […] Experiment was performed 3 times. […] Experiment was performed 3 times. Data are mean±s.e.m. […] Experiment was performed 3 times.
# [6] = system: ERK phosphorylation; test: Western blot of p-ERK in A375 cells with STAG2 and/or STAG3 knockdown; type: cell-based; conditions: 2 hr treatment
# Method: as §2
# [7] = system: melanoma; test: Melanoma patient treated with BRAFi, relapse; type: in vivo, human; conditions: one melanoma patient who relapsed
# Source text: This mutation in STAG2 gene (c.577G>A, resulting in Asp193Asn) was subsequently confirmed by Sanger sequencing. Although the pretreatment sample contains trace amounts of the mutated allele, it is greatly enriched in the post-relapse sample (FIG. 1A). STAG2 (also known as SA2) encodes a core subunit in the cohesin complex that regulates cohesion and segregation of sister chromatids^11,12. […] Stag2 has two other paralogs in mammals, Stag1 and Stag3. […] Sanger sequencing was subsequently performed for all coding exons of STAG2 and STAG3 genes in these cell line pairs and identified a STAG2 nonsense mutation (c.3247A>T, resulting in a change of Lys1083 to a stop codon (Lys1083*)) in WM902BR cells, which was not present in the parental WM902 cells (FIG. 6A). No mutations in STAG3 were identified in this cell line panel. […] STAG3 mutations were detected in post-relapse, but not pre-treatment, samples from an additional six patients from this study (Table 2).
# Patient samples and immunohistochemistry (IHC): Patients with metastatic melanoma containing BRAF^Val600 mutations (confirmed by genotyping) were enrolled in clinical trials testing treatment with a BRAF inhibitor alone or in combination with a MEK inhibitor. […] Formalin-fixed tissue was analyzed to confirm that viable tumor was present, using hematoxylin and eosin (H&E) staining. […]
smiles,measurement,setting,value
O=C(Nc1ccc2[nH]nc(-c3ccncc3)c2c1)[C@@H]1CCN(CC(=O)N2CCN(c3ccc(-c4ncccn4)cc3)CC2)C1 [SCH772984],sensitivity of cells in MTS assay,[1],sensitive to inhibition
same,effect of Stag2 knockdown on sensitivities in MTS assay,[2],does not affect their sensitivities
CC(C)(C)c1nc(-c2cccc(NS(=O)(=O)c3c(F)cccc3F)c2F)c(-c2ccnc(N)n2)s1 [dabrafenib],sensitivity with regard to cell viability and ERK inhibition,[3],decreased sensitivity
same,sensitivity of cells to BRAFi,[4],decreased the sensitivity
same,sensitivity in cell viability assay (MTS),[5],lower sensitivity
same,ability to inhibit ERK phosphorylation,[6],reduction in the ability
CCCS(=O)(=O)Nc1ccc(F)c(C(=O)c2c[nH]c3ncc(-c4ccc(Cl)cc4)cc23)c1F [vemurafenib],time-to-disease-progression,[7],5 months
